Patent US9540343B2 (Gilead Sciences, Inc., priority 2011, dated 2017)

Tests used:
HIV-IIIb = assay: Test A: Antiviral assay in MT4 cells; type: cell-based, HIV-1; details: Human immunodeficiency virus 1, IIIB, MT4, 120 h, read-out: % inhibition at 2 μM, percent inhibition of virus-induced cell killing, from dose response curve at 2 uM drug; MT-4 cells infected with HIV-IIIb, 5 days, CellTiter-Glo
in vitro = assay: in vitro
Summary of the method: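 Cytoprotection read-out: CellTiter-Glo chemiluminescence after 5 days at 37 °C of HIV-IIIb-infected MT-4 cells (m.o.i. 0.003) with compound in 10-point 3-fold dilutions, quadruplicate, 10% FBS. Cytotoxicity (CC50) measured identically without virus.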

[1] = human, uninfected MT-4 cells, CC50 (nM), same protocol as Test A, CellTiter-Glo
[2] = human, CC50 (nM), uninfected MT-4 cells, same protocol as Test A, CellTiter-Glo

| Structure (SMILES) | inhibition at 2 µM (HIV-IIIb) [%] | CC50 at 5 days (in vitro; [1]) [nM] | CC50 at 5 days (in vitro; [2]) [nM] |
| --- | --- | --- | --- |
| NC(=O)c1cc(-c2cccnc2[C@H](Cc2cc(F)cc(F)c2)NC(=O)Cn2nc(C(F)(F)F)c3c2CCC2(C3)OCCO2)ccc1F [Example 468D, (S)-5-(2-(2-(3,5-difluorophenyl)-1-(2-(3′-(trifluoromethyl)-6′,7′-dihydrospiro[[1,3]dioxolane-2,5′-indazole]-1′(4′H)-yl)acetamido)ethyl)pyridin-3-yl)-2-fluorobenzamide] | 14 | > 53000 | – |
| NC(=O)c1cc(-c2cccnc2[C@H](Cc2cc(F)cc(F)c2)NC(=O)Cc2n[nH]c3ccccc23)ccc1F [Example 469, 5-(2-(1-(2-(1H-indazol-3-yl)acetamido)-2-(3,5-difluorophenyl)ethyl)pyridin-3-yl)-2-fluorobenzamide] | 17 | > 53200 | – |
| Nc1cc(-c2cccnc2[C@H](Cc2cc(F)cc(F)c2)NC(=O)Cc2c[nH]c3ccc(F)cc23)ccc1F [Example 470, (S)—N-(1-(3-(3-amino-4-fluorophenyl)pyridin-2-yl)-2-(3,5-difluorophenyl)ethyl)-2-(5-fluoro-1H-indol-3-yl)acetamide] | 68 | 20800 | – |
| NC(=O)c1cc(-c2cccnc2[C@H](Cc2cc(F)cc(F)c2)NC(=O)Cn2ncc3c2CCCC3)ccc1F [Example 471, (S)-5-(2-(2-(3,5-difluorophenyl)-1-(2-(4,5,6,7-tetrahydro-1H-indazol-1-yl)acetamido)ethyl)pyridin-3-yl)-2-fluorobenzamide] | 62 | > 53200 | – |
| CC(=O)Nc1cc(-c2cccnc2[C@H](Cc2cc(F)cc(F)c2)NC(=O)Cc2c[nH]c3ccc(F)cc23)ccc1F [Example 473, (S)—N-(1-(3-(3-acetamido-4-fluorophenyl)pyridin-2-yl)-2-(3,5-difluorophenyl)ethyl)-2-(5-fluoro-1H-indol-3-yl)acetamide] | 18 | 14600 | – |
| O=C(Cn1nc(C(F)(F)F)c2c1CCCC2)NC(Cc1cc(F)cc(F)c1)c1nccnc1-c1ccc(Cl)cc1 (stereo not shown) [Example 474, N-(1-(3-(4-chlorophenyl)pyrazin-2-yl)-2-(3,5-difluorophenyl)ethyl)-2-(3-(trifluoromethyl)-4,5,6,7-tetrahydro-1H-indazol-1-yl)acetamide] | 17 | 9980 | – |
| Cc1cc2ncn(CC(=O)NC(Cc3cc(F)cc(F)c3)c3nccnc3-c3ccc(Cl)cc3)c2cc1C (stereo not shown) [Example 475, N-(1-(3-(4-chlorophenyl)pyrazin-2-yl)-2-(3,5-difluorophenyl)ethyl)-2-(5,6-dimethyl-1H-benzo[d]imidazol-1-yl)acetamide] | 23 | 20400 | – |
| NC(=O)c1cc(-c2cccnc2[C@H](Cc2cc(F)cc(F)c2)NC(=O)C2(c3ccccc3)CC2)ccc1F [Example 477, (S)-5-(2-(2-(3,5-difluorophenyl)-1-(1-phenylcyclopropanecarboxamido)ethyl)pyridin-3-yl)-2-fluorobenzamide] | 0 | 21400 | – |
| NC(=O)c1cccc(-c2cccnc2[C@H](Cc2cc(F)cc(F)c2)NC(=O)Cc2c[nH]c3ccccc23)c1 [Example 480, (S)-3-(2-(1-(2-(1H-indol-3-yl)acetamido)-2-(3,5-difluorophenyl)ethyl)pyridin-3-yl)benzamide] | 93 | 27800 | – |
| Cc1cccc2[nH]cc(CC(=O)N[C@@H](Cc3cc(F)cc(F)c3)c3ncccc3-c3cccc(C(N)=O)c3)c12 [Example 481, (S)-3-(2-(2-(3,5-difluorophenyl)-1-(2-(4-methyl-1H-indol-3-yl)acetamido)ethyl)pyridin-3-yl)benzamide] | 53 | 22900 | – |
| Cc1cc2cnn(CC(=O)N[C@@H](Cc3cc(F)cc(F)c3)c3ncccc3-c3ccc(F)c(C(N)=O)c3)c2cc1C [Example 485, (S)-5-(2-(2-(3,5-difluorophenyl)-1-(2-(5,6-dimethyl-1H-indazol-1-yl)acetamido)ethyl)pyridin-3-yl)-2-fluorobenzamide] | 43 | 22200 | – |
| CC(=O)c1c(C)n(CC(=O)N[C@@H](Cc2cc(F)cc(F)c2)c2ncccc2-c2ccc(Cl)cc2)c2ccccc12 [Example 486, (S)-2-(3-acetyl-2-methyl-1H-indol-1-yl)-N-(1-(3-(4-chlorophenyl)pyridin-2-yl)-2-(3,5-difluorophenyl)ethyl)acetamide] | 76 | – | 7080 |
| O=C1Cc2c(cccc2-c2cccnc2[C@H](Cc2cc(F)cc(F)c2)NC(=O)Cn2nc(C(F)F)c3c2C(F)(F)CCC3(F)F)N1 [Example 489D, (S)-2-(3-(difluoromethyl)-4,4,7,7-tetrafluoro-4,5,6,7-tetrahydro-1H-indazol-1-yl)-N-(2-(3,5-difluorophenyl)-1-(3-(2-oxoindolin-4-yl)pyridin-2-yl)ethyl)acetamide] | 97 | 20800 | – |
| O=C(Cn1nc(C(F)F)c2c1C(F)(F)CCC2(F)F)N[C@@H](Cc1cc(F)cc(F)c1)c1ncccc1-c1ccc2ccc(=O)[nH]c2c1 [Example 490D, (S)-2-(3-(difluoromethyl)-4,4,7,7-tetrafluoro-4,5,6,7-tetrahydro-1H-indazol-1-yl)-N-(2-(3,5-difluorophenyl)-1-(3-(2-oxo-1,2-dihydroquinolin-7-yl)pyridin-2-yl)ethyl)acetamide] | 87 | 38000 | – |
| NCc1ccc2[nH]cc(CC(=O)N[C@@H](Cc3cc(F)cc(F)c3)c3ncccc3-c3ccc(Cl)cc3)c2c1 [Example 491F, (S)-2-(5-(aminomethyl)-1H-indol-3-yl)-N-(1-(3-(4-chlorophenyl)pyridin-2-yl)-2-(3,5-difluorophenyl)ethyl)acetamide] | 18 | 7850 | – |
| NC(=O)c1cc(-c2cccnc2[C@H](Cc2cc(F)cc(F)c2)NC(=O)Cn2nc(C(F)(F)F)c3c2CCC3=O)ccc1F [Example 492B, (S)-5-(2-(2-(3,5-difluorophenyl)-1-(2-(4-oxo-3-(trifluoromethyl)-5,6-dihydrocyclopenta[c]pyrazol-1(4H)-yl)acetamido)ethyl)pyridin-3-yl)-2-fluorobenzamide] | 2 | > 53200 | – |
| Cc1c(C(F)F)nn(CC(=O)N[C@@H](Cc2cc(F)cc(F)c2)c2ncccc2-c2ccc(F)c(C(N)=O)c2)c1C(F)F [Example 493, (S)-5-(2-(1-(2-(3,5-bis(difluoromethyl)-4-methyl-1H-pyrazol-1-yl)acetamido)-2-(3,5-difluorophenyl)ethyl)pyridin-3-yl)-2-fluorobenzamide] | 48 | 33900 | – |
| NC(=O)c1cc(-c2cccnc2[C@H](Cc2cc(F)cc(F)c2)NC(=O)Cn2ccc3ccc(Cl)cc32)ccc1F [Example 494, (S)-5-(2-(1-(2-(6-chloro-1H-indol-1-yl)acetamido)-2-(3,5-difluorophenyl)ethyl)pyridin-3-yl)-2-fluorobenzamide] | 17 | 10400 | – |
| CC(=O)c1c(C)n(CC(=O)N[C@@H](Cc2cc(F)cc(F)c2)c2ncccc2-c2cccc(C(N)=O)c2)c2ccccc12 [Example 495, (S)-3-(2-(1-(2-(3-acetyl-2-methyl-1H-indol-1-yl)acetamido)-2-(3,5-difluorophenyl)ethyl)pyridin-3-yl)benzamide] | 85 | – | 15500 |
| CC(C)(C)OC(=O)Nc1ccc2[nH]cc(CC(=O)N[C@@H](Cc3cc(F)cc(F)c3)c3ncccc3-c3cccc(C(N)=O)c3)c2c1 [Example 496B, (S)-tert-butyl 3-(2-(1-(3-(3-carbamoylphenyl)pyridin-2-yl)-2-(3,5-difluorophenyl)ethylamino)-2-oxoethyl)-1H-indol-5-ylcarbamate] | 17 | 18400 | – |
| Cc1[nH]c2ccccc2c1CC(=O)N[C@@H](Cc1cc(F)cc(F)c1)c1ncccc1-c1cccc(C(N)=O)c1 [Example 497, (S)-3-(2-(2-(3,5-difluorophenyl)-1-(2-(2-methyl-1H-indol-3-yl)acetamido)ethyl)pyridin-3-yl)benzamide] | 67 | 27100 | – |
| Cc1cc2ccn(CC(=O)N[C@@H](Cc3cc(F)cc(F)c3)c3ncccc3-c3ccc(F)c(C(N)=O)c3)c2cc1C [Example 498F, (S)-5-(2-(2-(3,5-difluorophenyl)-1-(2-(5,6-dimethyl-1H-indol-1-yl)acetamido)ethyl)pyridin-3-yl)-2-fluorobenzamide] | 60 | 13200 | – |
| COc1ccc(CC(=O)N[C@@H](Cc2cc(F)cc(F)c2)c2ncccc2-c2cccc(C(N)=O)c2)c(OC)c1 [Example 499, (S)-3-(2-(2-(3,5-difluorophenyl)-1-(2-(2,4-dimethoxyphenyl)acetamido)ethyl)pyridin-3-yl)benzamide] | 22 | > 53000 | – |
| CC(=O)c1cn(CC(=O)N[C@@H](Cc2cc(F)cc(F)c2)c2ncccc2-c2cccc(C(N)=O)c2)c2ccccc12 [Example 500, (S)-3-(2-(1-(2-(3-acetyl-1H-indol-1-yl)acetamido)-2-(3,5-difluorophenyl)ethyl)pyridin-3-yl)benzamide] | 59 | – | 24300 |
| NC(=O)c1cccc(-c2cccnc2[C@H](Cc2cc(F)cc(F)c2)NC(=O)Cc2ccccc2)c1 [Example 501, (S)-3-(2-(2-(3,5-difluorophenyl)-1-(2-phenylacetamido)ethyl)pyridin-3-yl)benzamide] | 11 | 39600 | – |
| CC(C)(C)OC(=O)NCc1ccc2c(CC(=O)N[C@@H](Cc3cc(F)cc(F)c3)c3ncccc3-c3cccc(C(N)=O)c3)c[nH]c2c1 [Example 502F, (S)-tert-butyl (3-(2-(1-(3-(3-carbamoylphenyl)pyridin-2-yl)-2-(3,5-difluorophenyl)ethylamino)-2-oxoethyl)-1H-indol-6-yl)methylcarbamate] | 50 | 3050 | – |
